Experimental findings from patent US10336732B2, “1-heterocyclyl isochromanyl compounds and analogs for treating CNS disorders” (Sunovion Pharmaceuticals Inc., priority 2015, dated 2019) are described below.

This experiment relates to mice. The experiment in a line: Neuropharmacological assay (SmartCube), behavioral signature of compound-treated mice. The class given is in vivo. To be noted: i.p. 15 min before behavioral test, most efficacious dose(s) of 3 doses. In a few lines:
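Mice received compound i.p. in NMP/PEG/propylene glycol vehicle at 3 doses, 15 min before testing. Video-captured behavior was algorithmically compared with a reference-drug signature database.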

Consider `Fc1ccc2c(c1)CCCO[C@@H]2[C@H]1CCCN1` [Compound I-112, (R)-2-((S)-7-fluoro-1,3,4,5-tetrahydrobenzo[c]oxepin-1-yl)pyrrolidine], for which the “AD: ADHD (probability that behavioral signature matches class)” value (“AD: ADHD” for short) was “+ (LOQ ≤ + <5%)”, the “AG: analgesic (probability that behavioral signature matches class)” value (shortened to “AG: analgesic”) is reported as “+ (LOQ ≤ + <5%)”, the “AX: anxiolytic (probability that behavioral signature matches class)” value (“AX: anxiolytic” for short) was “++ (5% ≤ ++ <25%)” and the “CE: cognitive enhancer (probability that behavioral signature matches class)” value (“CE: cognitive enhancer” for short) is “++ (5% ≤ ++ <25%)”. Further, the “DP: anti-depressant (probability that behavioral signature matches class)” value (“DP: anti-depressant” for short) is reported as “++ (5% ≤ ++ <25%)”, the “HA: hallucinogen (probability that behavioral signature matches class)” value (from here on “HA: hallucinogen”) is given as “+ (LOQ ≤ + <5%)”, the “MS: mood stabilizer (probability that behavioral signature matches class)” value (shortened to “MS: mood stabilizer”) is reported as “+ (LOQ ≤ + <5%)” and the “PS: anti-psychotic (probability that behavioral signature matches class)” value (shortened to “PS: anti-psychotic”) is “+++ (25% ≤ +++ <50%)”. The “SD: sedative hypnotic (probability that behavioral signature matches class)” value (from here on “SD: sedative hypnotic”) is “+ (LOQ ≤ + <5%)”, the “UN: uncharacterized CNS activity (probability that behavioral signature matches class)” value (“UN: uncharacterized CNS activity” below) is given as “+ (LOQ ≤ + <5%)” and the “XG: anxiogenic (probability that behavioral signature matches class)” value (from here on “XG: anxiogenic”) is given as “+ (LOQ ≤ + <5%)”.
Consider `Fc1ccc2c(c1)CCCO[C@H]2[C@H]1CCCN1` [Compound I-113, (R)-2-((R)-7-fluoro-1,3,4,5-tetrahydrobenzo[c]oxepin-1-yl)pyrrolidine], for which the “AD: ADHD” value is “+ (LOQ ≤ + <5%)”, the “AG: analgesic” value is listed as “++ (5% ≤ ++ <25%)”, the “AX: anxiolytic” value is recorded as “++ (5% ≤ ++ <25%)” and the “CE: cognitive enhancer” value is listed as “++ (5% ≤ ++ <25%)”. In addition, the “DP: anti-depressant” value is listed as “+++ (25% ≤ +++ <50%)”, the “HA: hallucinogen” value is “+ (LOQ ≤ + <5%)”, the “MS: mood stabilizer” value was “+ (LOQ ≤ + <5%)” and the “PS: anti-psychotic” value is recorded as “++ (5% ≤ ++ <25%)”. For the same compound, the “SD: sedative hypnotic” value is “++ (5% ≤ ++ <25%)”, the “UN: uncharacterized CNS activity” value was “+ (LOQ ≤ + <5%)” and the “XG: anxiogenic” value is “+ (LOQ ≤ + <5%)”.
With `c1ccc2c(c1)CCO[C@@H]2C1CNC1` [Compound I-114, (R)-3-(isochroman-1-yl)azetidine], the “AD: ADHD” value is given as “+ (LOQ ≤ + <5%)”, the “AG: analgesic” value is given as “++ (5% ≤ ++ <25%)”, the “AX: anxiolytic” value is recorded as “++ (5% ≤ ++ <25%)” and the “CE: cognitive enhancer” value is listed as “++ (5% ≤ ++ <25%)”. For the same compound, the “DP: anti-depressant” value is on record as “+++ (25% ≤ +++ <50%)”, the “HA: hallucinogen” value is given as “+ (LOQ ≤ + <5%)”, the “MS: mood stabilizer” value is “+ (LOQ ≤ + <5%)” and the “PS: anti-psychotic” value is given as “++ (5% ≤ ++ <25%)”. Besides, the “SD: sedative hypnotic” value is reported as “++ (5% ≤ ++ <25%)”, the “UN: uncharacterized CNS activity” value is “+ (LOQ ≤ + <5%)” and the “XG: anxiogenic” value is recorded as “+ (LOQ ≤ + <5%)”.
With `c1ccc2c(c1)CCO[C@H]2C1CNC1` [Compound I-115, (S)-3-(isochroman-1-yl)azetidine], the “AD: ADHD” value is recorded as “+ (LOQ ≤ + <5%)”, the “AG: analgesic” value is “++ (5% ≤ ++ <25%)”, the “AX: anxiolytic” value was “++ (5% ≤ ++ <25%)” and the “CE: cognitive enhancer” value is recorded as “++ (5% ≤ ++ <25%)”. The “DP: anti-depressant” value is “++ (5% ≤ ++ <25%)”, the “HA: hallucinogen” value was “+ (LOQ ≤ + <5%)”, the “MS: mood stabilizer” value is “+ (LOQ ≤ + <5%)” and the “PS: anti-psychotic” value is given as “++ (5% ≤ ++ <25%)”. In addition, the “SD: sedative hypnotic” value is listed as “++ (5% ≤ ++ <25%)”, the “UN: uncharacterized CNS activity” value was “+++ (25% ≤ +++ <50%)” and the “XG: anxiogenic” value is “+ (LOQ ≤ + <5%)”.
Consider `Cc1ccc2c(c1)[C@@H](C1CNC1)OCC2` [Compound I-116, (R)-3-(7-methylisochroman-1-yl)azetidine], for which the “AD: ADHD” value is “+ (LOQ ≤ + <5%)”, the “AG: analgesic” value is reported as “+ (LOQ ≤ + <5%)”, the “AX: anxiolytic” value is “++ (5% ≤ ++ <25%)” and the “CE: cognitive enhancer” value is on record as “+ (LOQ ≤ + <5%)”. The “DP: anti-depressant” value is “++ (5% ≤ ++ <25%)”, the “HA: hallucinogen” value is reported as “+ (LOQ ≤ + <5%)”, the “MS: mood stabilizer” value is “+ (LOQ ≤ + <5%)” and the “PS: anti-psychotic” value was “+++ (25% ≤ +++ <50%)”. Also, the “SD: sedative hypnotic” value is on record as “++ (5% ≤ ++ <25%)”, the “UN: uncharacterized CNS activity” value was “+ (LOQ ≤ + <5%)” and the “XG: anxiogenic” value was “+ (LOQ ≤ + <5%)”.
With `Cc1ccc2c(c1)[C@H](C1CNC1)OCC2` [Compound I-117, (S)-3-(7-methylisochroman-1-yl)azetidine], the “AD: ADHD” value is listed as “+ (LOQ ≤ + <5%)”, the “AG: analgesic” value was “+ (LOQ ≤ + <5%)”, the “AX: anxiolytic” value was “++ (5% ≤ ++ <25%)” and the “CE: cognitive enhancer” value is reported as “++ (5% ≤ ++ <25%)”. The “DP: anti-depressant” value is “++ (5% ≤ ++ <25%)”, the “HA: hallucinogen” value was “+ (LOQ ≤ + <5%)”, the “MS: mood stabilizer” value was “+ (LOQ ≤ + <5%)” and the “PS: anti-psychotic” value is “+++ (25% ≤ +++ <50%)”. Besides, the “SD: sedative hypnotic” value is “+ (LOQ ≤ + <5%)”, the “UN: uncharacterized CNS activity” value is given as “+ (LOQ ≤ + <5%)” and the “XG: anxiogenic” value is recorded as “+ (LOQ ≤ + <5%)”.
Consider `Fc1ccc2c(c1)CO[C@@H]2[C@@H]1CCCN1` [Compound I-118, (S)-2-((S)-5-fluoro-1,3-dihydroisobenzofuran-1-yl)pyrrolidine], for which the “AD: ADHD” value was “+ (LOQ ≤ + <5%)”, the “AG: analgesic” value was “++ (5% ≤ ++ <25%)”, the “AX: anxiolytic” value is listed as “+++ (25% ≤ +++ <50%)” and the “CE: cognitive enhancer” value is “++ (5% ≤ ++ <25%)”. Further, the “DP: anti-depressant” value is reported as “++ (5% ≤ ++ <25%)”, the “HA: hallucinogen” value is reported as “+ (LOQ ≤ + <5%)”, the “MS: mood stabilizer” value is listed as “++ (5% ≤ ++ <25%)” and the “PS: anti-psychotic” value is reported as “+++ (25% ≤ +++ <50%)”. Also, the “SD: sedative hypnotic” value was “++ (5% ≤ ++ <25%)”, the “UN: uncharacterized CNS activity” value is “+ (LOQ ≤ + <5%)” and the “XG: anxiogenic” value is listed as “+ (LOQ ≤ + <5%)”.
As to `Fc1ccc2c(c1)CO[C@H]2[C@@H]1CCCN1` [Compound I-119, (S)-2-((R)-5-fluoro-1,3-dihydroisobenzofuran-1-yl)pyrrolidine], the “AD: ADHD” value is “+ (LOQ ≤ + <5%)”, the “AG: analgesic” value is on record as “+++ (25% ≤ +++ <50%)”, the “AX: anxiolytic” value was “++ (5% ≤ ++ <25%)” and the “CE: cognitive enhancer” value is “++ (5% ≤ ++ <25%)”. The “DP: anti-depressant” value is recorded as “++ (5% ≤ ++ <25%)”, the “HA: hallucinogen” value was “+ (LOQ ≤ + <5%)”, the “MS: mood stabilizer” value was “+ (LOQ ≤ + <5%)” and the “PS: anti-psychotic” value was “+++ (25% ≤ +++ <50%)”. Also, the “SD: sedative hypnotic” value is “+ (LOQ ≤ + <5%)”, the “UN: uncharacterized CNS activity” value is “+ (LOQ ≤ + <5%)” and the “XG: anxiogenic” value is “+ (LOQ ≤ + <5%)”.
In the case of `Fc1ccc2c(c1)CO[C@@H]2[C@H]1CCCN1` [Compound I-120, (R)-2-((S)-5-fluoro-1,3-dihydroisobenzofuran-1-yl)pyrrolidine], the “AD: ADHD” value is reported as “+ (LOQ ≤ + <5%)”, the “AG: analgesic” value was “++ (5% ≤ ++ <25%)”, the “AX: anxiolytic” value was “++ (5% ≤ ++ <25%)” and the “CE: cognitive enhancer” value was “+++ (25% ≤ +++ <50%)”. The “DP: anti-depressant” value was “++ (5% ≤ ++ <25%)”, the “HA: hallucinogen” value was “+ (LOQ ≤ + <5%)”, the “MS: mood stabilizer” value is listed as “++ (5% ≤ ++ <25%)” and the “PS: anti-psychotic” value is on record as “++ (5% ≤ ++ <25%)”. The “SD: sedative hypnotic” value is recorded as “++ (5% ≤ ++ <25%)”, the “UN: uncharacterized CNS activity” value was “++ (5% ≤ ++ <25%)” and the “XG: anxiogenic” value is recorded as “+ (LOQ ≤ + <5%)”.
